Read-outs that look alike come from different tables or passages of the source.
Assays:
[1] = tested on: HCC827GR cells; experiment: Soft agar anchorage-independent growth, HCC827GR; type: cell-based, human; conditions: 2 weeks; for colony number, Control % / colony size, Control %: GEF 1 μM, SAV 2 nM or both
Description: (§1) The anchorage-independent cell growth assay was performed in 6-well plates with dual agar layers containing 0.6 % agar (lower layer) and 0.3 % agar (upper layer) supplemented with BME, 2 mM L-glutamine, 5 μg/ml gentamicin, and 10 % FBS. After 2 weeks of incubation, the number of colonies was assessed using a microscope (Leica, Wetzlar, Germany), and the mean colony area was analyzed using i-Solution ^TM software (Vancouver, BC, Canada).

[2] = tested on: HCC827GR cells; conditions: GEF 1 μM, SAV 2 nM or both
Description: (§2) All culture media were supplemented with FBS (10 %) and P/S (1 %), and the cells were grown at 37 °C in 5 % CO2.
(§3) The cells were treated with MTT and incubated for 2 h. The supernatants were removed, and the remaining formazan crystals were dissolved in DMSO before absorbance measurement at 570 nm using a Multiscan GO spectrophotometer (Thermo Fisher Scientific, Vantaa, Finland).

[3] = tested on: HaCaT cells; conditions: GEF 1 μM, SAV 2 nM or both
Description: as §2, §3

[4] = tested on: caspase-3; experiment: Immunoblot caspase-3 with NAC pretreatment, HCC827 and HCC827GR cells; type: cell-based, human; conditions: for caspase3 protein/actin / caspase3 protein Ratio: NAC 4 mM; for caspase3 protein Ratio: control = 1.00
Description: (§4) HaCaT cells were grown in DMEM, whereas HCC827 and HCC827GR cells were grown in RPMI 1640. All culture media were supplemented with FBS (10 %) and P/S (1 %), and the cells were grown at 37 °C in 5 % CO2.
(§5) Cells were lysed in RIPA buffer, and protein concentration was determined using a Bio-Rad DC Protein Assay kit (Bio-Rad, Hercules, CA, USA). Protein samples from the cell lysates were resolved by sodium dodecyl sulfate-polyacrylamide gel electrophoresis and then transferred onto polyvinylidene fluoride membranes. The membranes were blocked with 3 % or 5 % skim milk and then incubated at 4 °C overnight with the indicated primary antibodies, followed by the corresponding horseradish peroxidase-conjugated secondary antibodies at RT for 2 h. Protein bands were visualized using western blotting luminol reagent solution and ImageQuant LAS 500 (GE Healthcare, Uppsala, Sweden). The density of the bands was quantified using ImageJ software (NIH, Bethesda, MD, USA).

[5] = tested on: p-AKT; experiment: Immunoblot p-AKT with NAC pretreatment, HCC827 and HCC827GR cells; type: cell-based, human; conditions: NAC 4 mM; for p-AKT protein Ratio: control = 1.00
Description: as §4, §5

[6] = tested on: p-EGFR; experiment: Immunoblot p-EGFR with NAC pretreatment, HCC827 and HCC827GR cells; type: cell-based, human; conditions: NAC 4 mM; for p-EGFR protein Ratio: control = 1.00
Description: as §4, §5

[7] = tested on: HCC827GR cells; experiment: MTT viability after NAC pretreatment, HCC827GR; type: cell-based, human; conditions: HCC827GR, NAC 4 mM
Description: as §2, §3

[8] = tested on: p-MET; experiment: Immunoblot p-MET with NAC pretreatment, HCC827 and HCC827GR cells; type: cell-based, human; conditions: NAC 4 mM; for p-MET protein Ratio: control = 1.00
Description: as §4, §5

[9] = tested on: PARP; experiment: Immunoblot PARP with NAC pretreatment, HCC827 and HCC827GR cells; type: cell-based, human; conditions: for PARP protein/actin / PARP protein Ratio: NAC 4 mM; for PARP protein Ratio: control = 1.00
Description: as §4, §5

[10] = tested on: HCC827 cells; experiment: MTT viability after NAC pretreatment, HCC827; type: cell-based, human; conditions: HCC827, NAC 4 mM
Description: as §2, §3

[11] = tested on: HCC827 cells; experiment: Soft agar anchorage-independent growth, HCC827; type: cell-based, human; conditions: 2 weeks; GEF 1 μM, SAV 2 nM or both
Description: as §1

[12] = tested on: HCC827 cells; conditions: GEF 1 μM, SAV 2 nM or both
Description: as §2, §3

[13] = tested on: HCC827GR cells; experiment: MTT viability with Z-VAD-FMK, HCC827GR; type: cell-based, human; conditions: Z-VAD-FMK 12 µM, 3 h; DBG 48 h
Description: as §2, §3

[14] = tested on: HCC827 cells; experiment: MTT viability with Z-VAD-FMK, HCC827; type: cell-based, human
Description: as §2, §3

[15] = NAC 4 mM pretreatment, then DBG

COc1cc2ncnc(Nc3ccc(F)c(Cl)c3)c2cc1OCCCN1CCOCC1 [GEF, gefitinib, reference compound]
colony number, Control % [1]: 84.14%
colony size, Control % [1]: 98.13%
cell viability ([2]; 24 h, mean, n=3): 102.64%
cell viability ([2]; 24 h, replicate 1): 103.39%
cell viability ([2]; 24 h, replicate 2): 100.47%
cell viability ([2]; 24 h, replicate 3): 104.06%
cell viability ([2]; 48 h, mean, n=3): 96.35%
cell viability ([2]; 48 h, replicate 1): 98.10%
cell viability ([2]; 48 h, replicate 2): 91.57%
cell viability ([2]; 48 h, replicate 3): 99.38%
cell viability ([3]; 24 h, mean, n=3): 65.33%
cell viability ([3]; 24 h, replicate 1): 65.07%
cell viability ([3]; 24 h, replicate 2): 64.14%
cell viability ([3]; 24 h, replicate 3): 66.80%
cell viability ([3]; 48 h, mean, n=3): 39.87%
cell viability ([3]; 48 h, replicate 1): 39.75%
cell viability ([3]; 48 h, replicate 2): 40.25%
cell viability ([3]; 48 h, replicate 3): 39.62%

CC(=O)N[C@@H](CS)C(=O)O [NAC, N-acetyl-L-cysteine, reference compound]
caspase3 protein/actin ([4]; HCC827, control 0.39): 0.48
caspase3 protein Ratio ([4]; HCC827): 1.23
caspase3 protein/actin ([4]; HCC827GR, control 0.59): 0.90
caspase3 protein Ratio ([4]; HCC827GR): 1.54
cleaved caspase-3 level [4, 15]: significantly prevented the increase
p-AKT protein/actin ([5]; HCC827, control 1.00): 0.79
p-AKT protein Ratio ([5]; HCC827): 0.79
p-AKT protein/actin ([5]; HCC827GR, control 1.04): 0.95
p-AKT protein Ratio ([5]; HCC827GR): 0.92
p-EGFR protein/actin ([6]; HCC827, control 0.90): 0.68
p-EGFR protein Ratio ([6]; HCC827): 0.76
p-EGFR protein/actin ([6]; HCC827GR, control 0.93): 0.93
p-EGFR protein Ratio ([6]; HCC827GR): 1.00
cell viability (relative to untreated = 100.00) ([7]; mean of 3): 99.78
cell viability (relative to untreated = 100.00) ([7]; replicate 1): 99.39
cell viability (relative to untreated = 100.00) ([7]; replicate 2): 100.59
cell viability (relative to untreated = 100.00) ([7]; replicate 3): 99.36
p-MET protein/actin ([8]; HCC827, control 1.17): 0.89
p-MET protein Ratio ([8]; HCC827): 0.76
p-MET protein/actin ([8]; HCC827GR, control 1.14): 1.03
p-MET protein Ratio ([8]; HCC827GR): 0.91
PARP protein/actin ([9]; HCC827, control 0.96): 1.00
PARP protein Ratio ([9]; HCC827): 1.04
PARP protein/actin ([9]; HCC827GR, control 0.99): 1.32
PARP protein Ratio ([9]; HCC827GR): 1.33
cleaved PARP level [9, 15]: significantly prevented the increase
cell viability (relative to untreated = 100.00) ([10]; mean of 3): 104.34
cell viability (relative to untreated = 100.00) ([10]; replicate 1): 105.47
cell viability (relative to untreated = 100.00) ([10]; replicate 2): 103.68
cell viability (relative to untreated = 100.00) ([10]; replicate 3): 103.89

C[C@@H](c1ccc2nccn2c1)n1nnc2ncc(-c3cnn(C)c3)nc21 [SAV, savolitinib, reference compound]
colony number, Control % [1]: 90.34%
colony size, Control % [1]: 125.91%
colony formation, in words ([1]; SAV 2 nM): did not significantly alter the colony size and count
colony formation, in words [11]: did not significantly alter the colony size and count
colony size, Control % [11]: 94.26%
cell viability ([2]; 24 h, mean, n=3): 97.44%
cell viability ([2]; 24 h, replicate 1): 102.35%
cell viability ([2]; 24 h, replicate 2): 94.96%
cell viability ([2]; 24 h, replicate 3): 95.02%
cell viability ([2]; 48 h, mean, n=3): 94.70%
cell viability ([2]; 48 h, replicate 1): 91.23%
cell viability ([2]; 48 h, replicate 2): 97.86%
cell viability ([2]; 48 h, replicate 3): 95.02%
cell viability ([3]; 24 h, mean, n=3): 98.31%
cell viability ([3]; 24 h, replicate 1): 97.97%
cell viability ([3]; 24 h, replicate 2): 99.14%
cell viability ([3]; 24 h, replicate 3): 97.82%
cell viability ([3]; 48 h, mean, n=3): 95.26%
cell viability ([3]; 48 h, replicate 1): 95.75%
cell viability ([3]; 48 h, replicate 2): 95.82%
cell viability ([3]; 48 h, replicate 3): 94.21%
cell viability ([12]; 24 h, mean, n=3): 95.55%
cell viability ([12]; 24 h, replicate 1): 94.16%
cell viability ([12]; 24 h, replicate 2): 96.61%
cell viability ([12]; 24 h, replicate 3): 95.89%
cell viability ([12]; 48 h, mean, n=3): 94.28%
cell viability ([12]; 48 h, replicate 1): 94.71%
cell viability ([12]; 48 h, replicate 2): 94.13%
cell viability ([12]; 48 h, replicate 3): 94.00%

Z-Val-Ala-Asp-(OMe)-fluoromethyl ketone [Z-VAD-FMK]
DBG-mediated inhibition of viability with Z-VAD-FMK [13]: significantly recovered
DBG-mediated inhibition of viability with Z-VAD-FMK ([14]; Z-VAD-FMK 12 µM, 3 h, DBG 48 h): significantly recovered
DBG-induced apoptosis with Z-VAD-FMK ([14]; Z-VAD-FMK pretreatment, cell line not specified (NSCLC cells)): prevented the DBG-induced apoptosis

Source: PMC11579512, “Deoxybouvardin-glucoside induces apoptosis in non-small cell lung cancer cells by targeting EGFR/MET and AKT signaling pathway” (EXCLI Journal, 2024)
